Measurements reported in ChEMBL document CHEMBL1201862, “PubChem BioAssay data set” (2004).
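1) Cells in 96-well plates. 2) Compound, 48 h, 5 concentrations. 3) Linear interpolation between surrounding doses. 4) Unreached endpoint = highest concentration. Here, GI50 denotes the concentration required for 50% inhibition of growth.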 Activity calls are given as the source filed them. No stated cut-off is given here; in the data, active = GI50 up to about 1.1 µM and inactive = higher.

How the values were obtained:
Assay in all cases: inhibition of tumour cell growth, NCI panel, 48 h
[1] = system: 786-0
[2] = system: A498
[3] = system: A549
[4] = system: ACHN
[5] = system: BT-549
[6] = system: CAKI-1
[7] = system: CCRF-CEM
[8] = system: COLO 205
[9] = system: DU-145
[10] = system: EKVX
[11] = system: HCT-116
[12] = system: HCT-15
[13] = system: HL-60
[14] = system: HOP-62
[15] = system: HOP-92
[16] = system: HT-29
[17] = system: Hs-578T
[18] = system: IGROV-1
[19] = system: K562
[20] = system: KM12
[21] = system: LOX IMVI
[22] = system: M14
[23] = system: MCF7
[24] = system: MDA-MB-231
[25] = system: MDA-MB-435
[26] = system: MDA-N
[27] = system: MOLT-4
[28] = system: NCI-H226
[29] = system: NCI-H23
[30] = system: NCI-H460
[31] = system: NCI/ADR-RES
[32] = system: OVCAR-3
[33] = system: OVCAR-5
[34] = system: OVCAR-8
[35] = system: PC-3
[36] = system: RPMI-8226
[37] = system: SF-268
[38] = system: SF-295
[39] = system: SF-539
[40] = system: SK-MEL-28
[41] = system: SK-MEL-2
[42] = system: SK-MEL-5
[43] = system: SK-OV-3
[44] = system: SN12C
[45] = system: SNB-19
[46] = system: SNB-75
[47] = system: SR
[48] = system: SW-620
[49] = system: T47D
[50] = system: TK-10
[51] = system: U-251
[52] = system: UACC-257
[53] = system: UACC-62
[54] = system: UO-31
[55] = system: Malme-3M
[56] = system: NCI-H522
[57] = system: OVCAR-4
[58] = system: RXF 393

NC(=S)Nc1nc(=S)[nH]c2[nH]ccc12
GI50 [1]: > 100 µM (inactive)
GI50 [2]: > 100 µM (inactive)
GI50 [3]: > 100 µM (inactive)
GI50 [4]: > 100 µM (inactive)
GI50 [5]: 93.8 µM (inactive)
GI50 [6]: > 100 µM (inactive)
GI50 [7]: 24.2 µM (inactive)
GI50 [8]: 82.4 µM (inactive)
GI50 [9]: > 100 µM (inactive)
GI50 [10]: 94.2 µM (inactive)
GI50 [11]: 90.8 µM (inactive)
GI50 [12]: 41.7 µM
GI50 [13]: 19.1 µM (inactive)
GI50 [14]: > 100 µM (inactive)
GI50 [15]: > 100 µM (inactive)
GI50 [16]: 99.5 µM (inactive)
GI50 [17]: 23.4 µM (inactive)
GI50 [18]: 88.5 µM (inactive)
GI50 [19]: 31 µM (inactive)
GI50 [20]: 26.2 µM (inactive)
GI50 [21]: 27.7 µM (inactive)
GI50 [22]: > 100 µM (inactive)
GI50 [23]: 91.2 µM (inactive)
GI50 [24]: > 100 µM (inactive)
GI50 [25]: 30.9 µM (inactive)
GI50 [26]: 98.2 µM (inactive)
GI50 [27]: 21.1 µM (inactive)
GI50 [28]: > 100 µM (inactive)
GI50 [29]: > 100 µM (inactive)
GI50 [30]: > 100 µM (inactive)
GI50 [31]: > 100 µM (inactive)
GI50 [32]: 29.7 µM (inactive)
GI50 [33]: > 100 µM (inactive)
GI50 [34]: 49.3 µM (inactive)
GI50 [35]: 74.3 µM (inactive)
GI50 [36]: 25.9 µM (inactive)
GI50 [37]: 20.2 µM (inactive)
GI50 [38]: 65.5 µM (inactive)
GI50 [39]: > 100 µM (inactive)
GI50 [40]: > 100 µM (inactive)
GI50 [41]: > 100 µM (inactive)
GI50 [42]: 15.3 µM (inactive)
GI50 [43]: > 100 µM (inactive)
GI50 [44]: > 100 µM (inactive)
GI50 [45]: > 100 µM (inactive)
GI50 [46]: < 0.01 µM (active)
GI50 [47]: 29.4 µM (inactive)
GI50 [48]: > 100 µM (inactive)
GI50 [49]: 58.2 µM (inactive)
GI50 [50]: 94.8 µM (inactive)
GI50 [51]: 93.1 µM (inactive)
GI50 [52]: > 100 µM (inactive)
GI50 [53]: 91 µM (inactive)
GI50 [54]: 66.7 µM (inactive)

CC(=O)c1cccc(Nc2nc3ccccc3c3[nH]c4ccccc4c23)c1
GI50 [1]: 3.01 µM (inactive)
GI50 [3]: 2.78 µM (inactive)
GI50 [4]: 3.63 µM (inactive)
GI50 [5]: > 100 µM (inactive)
GI50 [6]: 3.8 µM (inactive)
GI50 [7]: 5.74 µM (inactive)
GI50 [8]: 2.23 µM (inactive)
GI50 [9]: 4.93 µM (inactive)
GI50 [10]: 3.05 µM (inactive)
GI50 [11]: 4.28 µM (inactive)
GI50 [12]: 3.94 µM
GI50 [14]: 7.31 µM (inactive)
GI50 [15]: 2.87 µM (inactive)
GI50 [16]: 4.02 µM (inactive)
GI50 [17]: 10.9 µM (inactive)
GI50 [18]: 2.88 µM (inactive)
GI50 [19]: 4.69 µM (inactive)
GI50 [20]: 4.66 µM (inactive)
GI50 [22]: 8.79 µM (inactive)
GI50 [23]: 0.403 µM (active)
GI50 [24]: 3.19 µM (inactive)
GI50 [25]: 4.48 µM (inactive)
GI50 [26]: 4.73 µM (inactive)
GI50 [55]: 3.61 µM (inactive)
GI50 [29]: 9.38 µM (inactive)
GI50 [30]: 1.7 µM (inactive)
GI50 [56]: 2.57 µM (inactive)
GI50 [31]: 4.05 µM (inactive)
GI50 [32]: 2.48 µM (inactive)
GI50 [33]: 6.52 µM (inactive)
GI50 [34]: 3.86 µM (inactive)
GI50 [35]: 4.65 µM (inactive)
GI50 [36]: 3.03 µM (inactive)
GI50 [37]: 3.67 µM (inactive)
GI50 [38]: 3.53 µM (inactive)
GI50 [39]: 4 µM (inactive)
GI50 [41]: 3.75 µM (inactive)
GI50 [43]: 5.42 µM (inactive)
GI50 [44]: 3.49 µM (inactive)
GI50 [45]: 16.2 µM (inactive)
GI50 [48]: 4.81 µM (inactive)
GI50 [49]: 3.48 µM (inactive)
GI50 [50]: 7.55 µM (inactive)
GI50 [51]: 3.98 µM (inactive)
GI50 [52]: 9.04 µM (inactive)
GI50 [53]: 1.94 µM (inactive)
GI50 [54]: 3.33 µM (inactive)

CC(=O)c1ccc2c(c1)N(CCCN1CCN(CCO)CC1)c1ccccc1C2
GI50 [1]: 16.9 µM (inactive)
GI50 [2]: 15.7 µM (inactive)
GI50 [3]: 17.9 µM (inactive)
GI50 [4]: 20.3 µM (inactive)
GI50 [5]: 14.7 µM (inactive)
GI50 [6]: 13.6 µM (inactive)
GI50 [7]: 11.7 µM (inactive)
GI50 [8]: 15.1 µM (inactive)
GI50 [9]: 14.3 µM (inactive)
GI50 [10]: 17.9 µM (inactive)
GI50 [11]: 16.3 µM (inactive)
GI50 [12]: 14.4 µM
GI50 [13]: 13.8 µM (inactive)
GI50 [14]: 15.3 µM (inactive)
GI50 [15]: 12.9 µM (inactive)
GI50 [16]: 10 µM (inactive)
GI50 [17]: 14.8 µM (inactive)
GI50 [18]: 17.3 µM (inactive)
GI50 [19]: 13.5 µM (inactive)
GI50 [20]: 15.5 µM (inactive)
GI50 [21]: 15.2 µM (inactive)
GI50 [22]: 13.6 µM (inactive)
GI50 [24]: 13.2 µM (inactive)
GI50 [25]: 8.71 µM (inactive)
GI50 [26]: 13 µM (inactive)
GI50 [27]: 18.4 µM (inactive)
GI50 [55]: 18.2 µM (inactive)
GI50 [28]: 14.6 µM (inactive)
GI50 [29]: 15.8 µM (inactive)
GI50 [30]: 15.8 µM (inactive)
GI50 [56]: 16.3 µM (inactive)
GI50 [31]: 13.9 µM (inactive)
GI50 [32]: 15.5 µM (inactive)
GI50 [57]: 15.1 µM (inactive)
GI50 [33]: 17.2 µM (inactive)
GI50 [34]: 16.7 µM (inactive)
GI50 [35]: 14.3 µM (inactive)
GI50 [36]: 12.9 µM (inactive)
GI50 [58]: 15.4 µM (inactive)
GI50 [37]: 17.8 µM (inactive)
GI50 [38]: 17.1 µM (inactive)
GI50 [39]: 16.7 µM (inactive)
GI50 [40]: 11.2 µM (inactive)
GI50 [41]: 18.3 µM (inactive)
GI50 [42]: 12.2 µM (inactive)
GI50 [43]: 16.3 µM (inactive)
GI50 [44]: 16.9 µM (inactive)
GI50 [45]: 18.9 µM (inactive)
GI50 [46]: 16.6 µM (inactive)
GI50 [48]: 14.5 µM (inactive)
GI50 [49]: 12.3 µM (inactive)
GI50 [50]: 14.7 µM (inactive)
GI50 [51]: 15.8 µM (inactive)
GI50 [52]: 5.78 µM (inactive)
GI50 [53]: 10.8 µM (inactive)
GI50 [54]: 23.8 µM (inactive)
